Reference: patent US5756502A, “Quinazolinone derivatives as cholyecystokinin (CCK) ligands” (Warner-Lambert Company, priority 1995, dated 1998)
Read-outs that look alike come from different tables or passages of the source.

What was measured:
CCK-A receptor = CCK-A receptor binding
Procedure: (§1) The biological activity of compounds of the present invention may be evaluated by employing an initial screening test which rapidly and accurately measures the binding of the tested compound to known CCK receptor sites. […] (See Hays, et al., Neuropeptides 1:53-62, 1980; and Satuer, et al., Science 208:1155-1156, 1980).
In displacement experiments, inhibition curves were analyzed by either logit-log plots or the iterative curve fitting computer program ALLFIT (DeLean, Munson, and Redbard, 1978) to provide estimates of the IC50 and nH (apparent Hill coefficient values). (IC50 values were defined as the concentration of test compound required to produce 50% inhibition of specific binding).
The inhibition constant (Ki) of the test compound was then calculated according to the Cheng-Prusoff equation: [formula] where [L] is the concentration of radiolabel and Ka is the equilibrium dissociation constant.
The Ki values for several representative compounds of the present invention are present in Table 1.
The following table represents the CCK-A and CCK-B receptor binding affinities of the compounds. [drawing 34]
The testing procedures are disclosed in Hays, et al., Neuropeptides 1:53-62, 1980; and Satuer, et al., Science 208:1155-1156, 1980.

CCK-B receptors = settings: words; cited from earlier work
CCK-A receptors = settings: words; cited from earlier work
CCK-B receptor = molecular target: T1, CCK-B receptor (Mus musculus, UniProt P56481); test: CCK-B receptor binding (displacement of tritiated-pentagastrin from mouse cerebral cortical membranes)
T1 construct: from tissue; host or cells: cerebral cortex of male CFLP mice (membranes)
T1 sequence (P56481 1-453): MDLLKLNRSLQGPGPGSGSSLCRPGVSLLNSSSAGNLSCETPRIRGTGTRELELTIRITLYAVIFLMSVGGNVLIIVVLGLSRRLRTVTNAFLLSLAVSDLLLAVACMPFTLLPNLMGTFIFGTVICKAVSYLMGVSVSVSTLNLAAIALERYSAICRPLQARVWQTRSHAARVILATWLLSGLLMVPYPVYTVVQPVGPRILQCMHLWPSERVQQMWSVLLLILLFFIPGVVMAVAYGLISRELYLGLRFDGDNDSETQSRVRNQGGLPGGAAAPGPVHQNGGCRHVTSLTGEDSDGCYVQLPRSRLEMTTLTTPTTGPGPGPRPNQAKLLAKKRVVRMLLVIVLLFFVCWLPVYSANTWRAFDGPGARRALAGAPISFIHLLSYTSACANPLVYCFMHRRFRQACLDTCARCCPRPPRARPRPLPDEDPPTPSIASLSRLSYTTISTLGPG
Procedure: as §1
In this screening test, the cerebral cortices taken from male CFLP mice weighing between 30 to 40 g were dissected on ice, weighed, and homogenized in 10 volumes of 50 mM Tris-HCl buffer (pH 7.4 at 0°-4° C.). The resulting suspension was centrifuged, the supernate was discarded, and the pellet was washed by resuspension in Tris-HCl buffer followed by recentrifugation. The final pellet was resuspended in 20 volumes of […] buffer (pH 7.2 at 23° C.) containing 130 mM NaCl, […], […].
In saturation studies, cerebral cortical membranes were incubated at 23° C. for 120 minutes in a final volume of 500 μL of Hepes incubation buffer (pH 7.2) together with 0.2-20 nM tritiated-pentagastrin (Amersham International, England).
In the displacement experiments, membranes were incubated with a single concentration (2 nM) of ligand, together with increasing concentrations (10^-11 to 10^-6 M) of competitive test compound. In each case, the nonspecific binding was defined as that persisting in the presence of the unlabeled octapeptide CCK26-33 (10^-6 M)
Following incubation, radioactivity bound to membranes was separated from that free in solution by rapid filtration through Whatman GF/B filters and washed three times with 4 mL of ice cold Tris-HCl buffer. Filters from samples incubated with tritiated-pentagastrin were placed in polyethylene vials with 4 mL of scintillation cocktail, and the radioactivity was estimated by liquid scintillation spectrometry (efficiency 47-52%). […]
Saturation curves for specific tritiated-pentagastrin binding to mouse cortical membranes were analyzed by the methods of Scatchard (Ann. New York Acad. Sci. 51:660-672, 1949), and Hill (J. Physiol. 40:IV-VIII, 1910), to provide estimates for the maximum number of binding sites (Bmax) and the equilibrium dissociation constant (Ka)
In displacement experiments, inhibition curves were analyzed by either logit-log plots or the iterative curve fitting computer program ALLFIT (DeLean, Munson, and Redbard, 1978) to provide estimates of the IC50 and nH (apparent Hill coefficient values). […]
The inhibition constant (Ki) of the test compound was then calculated according to the Cheng-Prusoff equation: [formula] where [L] is the concentration of radiolabel and Ka is the equilibrium dissociation constant. […]

[1] = 2 nM tritiated-pentagastrin, Hepes buffer pH 7.2, 23° C., read-out: CCK-B (Ki)

CC(C)Oc1cccc(-n2c(CCNC(=O)Nc3ccc(Br)cc3)nc3ccccc3c2=O)c1 [2 NH 4-BrPh, Urea, N-(4-bromophenyl)-N'-[2-[3,4-dihydro-3-[3-(1-methylethoxy)phenyl]-4-oxo-2-quinazolinyl]ethyl]]
Ki (CCK-A receptor; read-out: CCK-A (Ki)): 1.63 µM

CCK-8S: sulfated octapeptide (CCK-8S)
affinity for CCK-B receptors (CCK-B receptors): high affinity | affinity for CCK-A receptors (CCK-A receptors): high affinity

CC(C)Oc1cccc(-n2c(CNC(=O)OCc3ccccc3)nc3ccccc3c2=O)c1
Ki (CCK-B receptor; [1]): 0.62 µM

CC(C)Oc1cccc(-n2c(CCNC(=O)OCc3ccccc3)nc3ccccc3c2=O)c1 [2 O PhCH2]
Ki (CCK-B receptor; [1]): 0.768 µM | Ki (CCK-A receptor; read-out: CCK-A (Ki)): 2.77 µM

CC(C)Oc1cccc(-n2c(CNC(=O)Nc3ccc(Br)cc3)nc3ccccc3c2=O)c1 [1 NH 4-BrPh, Urea, N-(4-bromophenyl)-N-[[3,4-dihydro-3-[3-(1-methylethoxy)phenyl]-4-2-quinazolinyl]methyl]]
Ki (CCK-A receptor; read-out: CCK-A (Ki)): 0.984 µM

CC(C)Oc1cccc(-n2c(CNC(=O)c3cnc4ccccc4n3)nc3ccccc3c2=O)c1 [1 -- 2-Quinoxolinyl, 2-Quinoxalinecarboxamide, N-[[1,2-dihydro-3-[3-(1-methylethoxy)phenyl]-4-oxo-2-quinazolinyl]methyl]]
Ki (CCK-B receptor; [1]): 0.842 µM | CCK-A, % @ 10 μM (in the Ki column) (CCK-A receptor; @ 10 μM): 29%

CCK-8d: corresponding desulfated fragment CCK-8d
affinity for CCK-A receptors (CCK-A receptors): lower affinity

CC(C)Oc1cccc(-n2c(CNC(=O)Nc3ccc([N+](=O)[O-])cc3)nc3ccccc3c2=O)c1 [1 NH 4-NO2 Ph]
Ki (CCK-A receptor; read-out: CCK-A (Ki)): 0.385 µM

CCK-4
affinity for CCK-B receptors (CCK-B receptors): high affinity | affinity for CCK-A receptors (CCK-A receptors): lower affinity

Cc1ccc(S(=O)(=O)NC(=O)NCc2nc3ccccc3c(=O)n2-c2cccc(OC(C)C)c2)cc1 [1 NHSO2 4-CH3 Ph, Benzenesulfonamide, N-[[[[3,4-dihydro-[3-(1-methylethoxy)phenyl]-4-oxo-2-quinazolinyl]methyl]amino]carboxy]-4-methyl]
Ki (CCK-B receptor; bound printed in μM in the Ki, nM column, read-out: CCK-B Ki (cell in μM)): > 1 µM | Ki (CCK-A receptor; bound printed in μM in the Ki, nM column, read-out: CCK-A Ki (cell in μM)): > 1 µM

CC(C)Oc1cccc(-n2c(CNC(=O)Nc3ccc(C(F)(F)F)cc3)nc3ccccc3c2=O)c1 [1 NH 4-CF3 Ph]
Ki (CCK-A receptor; read-out: CCK-A (Ki)): 0.674 µM

CC(C)Oc1cccc(-n2c(CNC(=O)NCc3ccc(Br)cc3)nc3ccccc3c2=O)c1 [1 NH 4-BrPhCH2]
Ki (CCK-A receptor; read-out: CCK-A (Ki)): 3.1 µM

gastrin: gastrin peptide sharing a common carboxy terminal pentapeptide sequence with CCK
affinity for CCK-B receptors (CCK-B receptors): high affinity | affinity for CCK-A receptors (CCK-A receptors): lower affinity

Cc1cccc(NC(=O)NCc2nc3ccccc3c(=O)n2-c2cccc(OC(C)C)c2)c1 [1 NH 3-MePh, Urea, N-[[3,4-dihydro-3-[3-(1-methylethoxy)phenyl]-4-2-quinazolinyl]methyl]-N-(3-methylphenyl)]
Ki (CCK-A receptor; read-out: CCK-A (Ki)): 1.64 µM

CCOC(=O)c1cccc(NC(=O)NCc2nc3ccccc3c(=O)n2-c2cccc(OC(C)C)c2)c1 [1 NH 3-COOEtPh, Benzoic Acid, 3-[[[3,4-dihydro-3-[3-(1-methylethoxy)phenyl]-4-oxo-2-quinazolinyl]methyl]amino]carbonylamino-, ethyl ester]
Ki (CCK-A receptor; read-out: CCK-A (Ki)): 1.47 µM
